“And” between values parts separate entries of the source, which are not always exact repeats. Equal values may be shown once.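 Following 48 hours of exposure in 96-well plates, responses at five concentrations were used to interpolate endpoints linearly. GI50: concentration for 50% inhibition of growth. TGI: total growth inhibition.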
Experiments:
Assay in all cases: inhibition of tumour cell growth, NCI panel, 48 h
SK-MEL-2 melanoma = test system: SK-MEL-2 melanoma
K-562 leukemia = test system: K-562 leukemia
KM12 colon = test system: KM12 colon
HS 578T breast = test system: HS 578T breast
RXF 393 renal = test system: RXF 393 renal
IGROV1 ovarian = test system: IGROV1 ovarian
UACC-62 melanoma = test system: UACC-62 melanoma
SR leukemia = test system: SR leukemia
HOP-62 NSCLC = test system: HOP-62 NSCLC
HOP-92 NSCLC = test system: HOP-92 NSCLC

| SMILES | GI50 (SK-MEL-2 melanoma) | TGI (SK-MEL-2 melanoma) | GI50 (K-562 leukemia) [µM] | TGI (K-562 leukemia) [µM] | GI50 (KM12 colon) | TGI (KM12 colon) | GI50 (HS 578T breast) | TGI (HS 578T breast) | GI50 (RXF 393 renal) | TGI (RXF 393 renal) | GI50 (IGROV1 ovarian) | TGI (IGROV1 ovarian) | GI50 (UACC-62 melanoma) | TGI (UACC-62 melanoma) | GI50 (SR leukemia) | TGI (SR leukemia) | GI50 (HOP-62 NSCLC) | TGI (HOP-62 NSCLC) | GI50 (HOP-92 NSCLC) | TGI (HOP-92 NSCLC) |
| --- | --- | --- | --- | --- | --- | --- | --- | --- | --- | --- | --- | --- | --- | --- | --- | --- | --- | --- | --- | --- |
| CC12CCC(O)CC1=CCC1C2CCC2(C)C(c3cccnc3)=CCC12 (stereo not given) | > 100 µM | > 100 µM | 76.8 | > 100 | > 100 µM | > 100 µM | > 100 µM | > 100 µM | 40.2 µM | > 100 µM | > 100 µM | > 100 µM | > 100 µM | > 100 µM | 93.9 µM | > 100 µM | > 100 µM | > 100 µM | 43 µM | > 100 µM |
| COc1cc2c(cc1O)C(c1cc(O)c(O)c(OC)c1)C(O)(C(=O)O)C(CO)C2O (stereo not given) |  | > 100 µM |  | > 100 |  | > 100 µM |  | > 100 µM |  | > 100 µM |  | > 100 µM |  | > 100 µM |  | > 100 µM |  | > 100 µM |  | > 100 µM |
| O=Nc1c(O)c2ccccc2c2ccccc12 | 1.8 µM | 3.99 µM | 0.505 | > 100 | 1.76 µM | 3.34 µM | 2 µM | 5.65 µM | 1.72 µM | 3.23 µM | 1.83 µM | 3.51 µM | 0.99 µM | 2.37 µM | 1.07 µM | 64.2 µM | 0.768 µM | 2.41 µM | 2.32 µM | 4.57 µM |
| O=C(c1ccccc1O)c1[nH]c(Cl)c(Cl)c1-n1c(C(=O)c2ccccc2O)cc(Cl)c1Cl | 0.335 µM and 1.13 µM | 1.41 µM and 5.68 µM | 0.409 | 16.8 | 1.92 µM and 0.75 µM | 12.1 µM and 11.9 µM | 0.849 µM and 0.623 µM | 10.9 µM and 9.66 µM | 1.09 µM and 0.754 µM | 9.12 µM and 6.72 µM | 1.54 µM and 1.45 µM | 20.5 µM and 15.1 µM | 0.495 µM and 0.361 µM | 3.34 µM and 2.09 µM | 2.76 µM and 0.446 µM | 15.2 µM and 15.1 µM | 2.14 µM and 3.49 µM | 6.49 µM and 17.2 µM | 0.224 µM and 0.155 µM | 0.94 µM and 0.587 µM |
| C#C/C=C/CC1OC(C(Br)CC)CC(Br)C2CC1O2 (stereo not given) |  | > 100 µM |  | > 100 |  | > 100 µM |  | > 100 µM |  | > 100 µM |  | 14.6 µM |  | > 100 µM |  | > 100 µM |  | > 100 µM |  | 58.6 µM |
| CC(=O)c1ccc2c(c1)N(CCCN(C)C)c1ccccc1S2 | 18.1 µM | 35.7 µM | 15.9 | 83.7 | 15.7 µM | 29.6 µM | 11.6 µM | 27.8 µM | 8.86 µM | 22 µM | 18.8 µM | 44 µM | 14.9 µM | 29.1 µM | 18.7 µM | 49.5 µM | 15.6 µM | 31.6 µM | 11.3 µM | 53.7 µM |
| CCN(Cc1cccc(F)c1F)c1ccc(CO)c(Cl)c1 | 4.68 µM | 22.6 µM | 0.683 | 29.3 | 15.8 µM | 31.6 µM | 17.9 µM | 48.7 µM | 1.89 µM | 14.9 µM | 0.0668 µM | 0.335 µM | 0.0842 µM | 0.519 µM | 18.8 µM | 43.7 µM | 1.82 µM | 24.6 µM | 0.19 µM | 8.23 µM |
| NCCN1C(=O)c2ccccc2C1(O)c1ccc(Cl)cc1 (stereo not given) |  | 30.8 µM |  | 39 |  | 30.5 µM |  | 33.1 µM |  | 55.8 µM |  | 41 µM |  | 30.7 µM |  | 36.6 µM |  | 89.8 µM |  | 34.4 µM |
| Nc1cc2nc3ccccc3oc-2cc1=O | 6.62 µM | 25.7 µM | 2.05 | > 26.9 | 3.71 µM | 43.5 µM | 1.48 µM | 5.52 µM | 5.07 µM | 14.2 µM | 2.79 µM | 21.2 µM | 1.67 µM | 3.27 µM | 9.93 µM | > 75.3 µM | 2.94 µM | 6.64 µM | > 45 µM | > 100 µM |
| CN(C)c1ccc(/C=N/NC(=O)c2cccc3ccccc23)c(Cl)c1 | 0.815 µM | 16.5 µM | 0.398 | > 100 | 1.01 µM | > 100 µM | 1.27 µM | > 100 µM | 1.31 µM | 10.8 µM | 3.44 µM | > 100 µM | 0.978 µM | > 100 µM | 0.36 µM | > 100 µM | 4.18 µM | 33.4 µM | 0.372 µM | 19.6 µM |
| COc1ccc2nccc(/C=C/c3ccnc4ccc(OC)cc34)c2c1 | > 53.6 µM | > 78.4 µM | > 43 | > 59.1 | > 73.1 µM | > 100 µM | 23.6 µM | 90.1 µM | > 73.4 µM | > 100 µM | 28.4 µM | 75.7 µM | > 77.4 µM | > 100 µM | 21.8 µM | > 53.7 µM | > 64.3 µM | > 100 µM | 8.11 µM | > 56.9 µM |
| CC(OC(=O)N(N(CCCl)S(C)(=O)=O)S(C)(=O)=O)c1ccc([N+](=O)[O-])cc1 (stereo not given) | > 100 µM | > 100 µM | 35.7 | > 100 | > 82 µM | > 100 µM | > 54.7 µM | > 92 µM | > 100 µM | > 100 µM | > 96.6 µM | > 100 µM | 29.6 µM | > 100 µM | 26.7 µM | > 100 µM | 29.4 µM | > 100 µM | > 100 µM | > 100 µM |
| CCN1C(=O)N(CC)C2C1NN=c1s/c(=C\c3cccc([N+](=O)[O-])c3)c(=O)n12 (stereo not given) | 0.453 µM | > 100 µM | 0.0411 | > 100 | 0.0404 µM | > 100 µM | 0.0502 µM | > 100 µM | 0.0708 µM | > 100 µM | 0.162 µM | > 100 µM | 0.0539 µM | > 100 µM | 0.0471 µM | > 100 µM | 0.104 µM | > 100 µM | 4.05 µM | > 100 µM |
| Oc1ccccc1C=Nc1ccccc1N=Cc1ccccc1O.[Cu+2] | 5.81 µM | 19.5 µM | 4.44 | > 100 | 3.5 µM | 15 µM | 15.4 µM | 92 µM | 13.2 µM | 26.6 µM | 3.27 µM | 20.1 µM | 3.13 µM | 14.2 µM | 13.2 µM | > 100 µM | 2.99 µM | 11.7 µM | 1.03 µM | 8.9 µM |
| NC(CO)C(=O)NCC(=O)O (stereo not given) |  | > 100 µM |  | > 100 |  | > 100 µM |  | > 100 µM |  | > 100 µM |  | > 100 µM |  | > 100 µM |  | > 100 µM |  | > 100 µM |  | > 100 µM |
| Oc1c2c(c(O)c3ccccc13)C1(N=N2)c2ccccc2Oc2ccccc21 |  | 27.4 µM |  | > 100 |  | 38.6 µM |  | 41.5 µM |  | 4.65 µM |  | 10.2 µM |  | 25.1 µM |  | > 100 µM |  | 38.5 µM |  | 31 µM |
| CN(C)c1ccc(C(=C2C=CC(=[N+](C)C)C=C2)c2ccccc2Cl)cc1 | 0.339 µM | 0.899 µM | 0.244 | 3.79 | 0.283 µM | 0.929 µM | 0.207 µM | 2.78 µM | 0.405 µM | 1.61 µM | 0.365 µM | 1.34 µM | 0.323 µM | 1.43 µM | 0.235 µM | 0.898 µM | 0.292 µM | 0.949 µM | 0.302 µM | 1.35 µM |
